Reference: patent publication US12076464B2, “Drug eluting shape memory foam” (The Texas A&M University System, priority 2019, dated 2024)

Columns and labels:
Format in all cases: physicochemical
[1] = Solubility in DMSO and water
[2] = In vitro release of acriflavine from SMP foams into PBS at 37° C., fluorescence of supernatants
Protocol: An embodiment includes a method for creating a drug-eluting SMP foam. The method includes incubating the foam in a 0.017 mg/mL acriflavine solution (e.g., 1 mg/mL in acriflavine solution dimethyl sulfoxide (DMSO)) that is mixed with varying PVA solutions of 0%, 1%, 2%, 3%, 10% (wt./vol) overnight on a rotator at room temperature (n=3). Different PVA concentrations may be used to increase drug viscosity and drug uptake onto or into the foam. In other embodiments PVA is held constant and acriflavine concentrations are varied (which changes the PVA viscosity). Foams may then be removed from the respective drug/PVA solutions and dried in a vacuum chamber for 5 days. The foams may then be incubated in 0.4 mL phosphate-buffered saline (PBS) at 37° C. Supernatants may be removed at various time points and measured for fluorescence at 416/514 nm (Ex/Em). Regarding in vitro release of acriflavine from HDI-based SMP foams, see FIG. 1. […] This may be because of the increased loading of acriflavine that is due to PVA (and PVA's affinity for the foam). […] In vitro release of acriflavine from non-reticulated TMHDI 60 foam is addressed in FIG. 3.

[3] = Drug uptake (loading) onto or into SMP foam from drug/PVA solutions
Protocol: An embodiment includes a method for creating a drug-eluting SMP foam. The method includes incubating the foam in a 0.017 mg/mL acriflavine solution (e.g., 1 mg/mL in acriflavine solution dimethyl sulfoxide (DMSO)) that is mixed with varying PVA solutions of 0%, 1%, 2%, 3%, 10% (wt./vol) overnight on a rotator at room temperature (n=3). Different PVA concentrations may be used to increase drug viscosity and drug uptake onto or into the foam. In other embodiments PVA is held constant and acriflavine concentrations are varied (which changes the PVA viscosity). Foams may then be removed from the respective drug/PVA solutions and dried in a vacuum chamber for 5 days. The foams may then be incubated in 0.4 mL phosphate-buffered saline (PBS) at 37° C. Supernatants may be removed at various time points and measured for fluorescence at 416/514 nm (Ex/Em). In an embodiment acriflavine is used as a cargo in the free drug form (which helps illustrate the release profile for drug solutions with different PVA concentrations). […] This may be due, at least in part, to the increased viscosity of the drug when combined with PVA, which enables the drug to be trapped within or on the pores present in the foam. […]

Row | solubility [1] | release profile ([2]; drug solution with 0% PVA) | release profile ([2]; solutions with higher PVA concentrations) | drug uptake onto or into the foam ([3]; drug solution without PVA (0% PVA), compared to solutions with increasing PVA concentration) | drug uptake onto or into the foam ([3]; increasing PVA concentrations, FIGS. 1, 2, 3) | Compound | acriflavine release from SMP foams (non-cumulative release curve) ([2]; HDI-based SMP foams, FIG. 1, increasing PVA concentration) | acriflavine release from SMP foams (non-cumulative release curve) ([2]; non-reticulated TMHDI 60 (TH60) SMP foams, FIG. 3, increasing PVA concentration) | acriflavine release from SMP foams (non-cumulative release curve) ([2]; reticulated HH80 SMP foams, FIG. 2, increasing PVA concentration)
1 | soluble in both DMSO and water | – | – | – | – | COc1cccc2c1C(=O)c1c(O)c3c(c(O)c1C2=O)C[C@@](O)(C(=O)CO)C[C@@H]3O[C@H]1C[C@H](N)[C@H](O)[C@H](C)O1 [Doxorubicin] | – | – | –
2 | soluble in both DMSO and water | delayed burst release | immediate release | less drug uptake | increased drug uptake | Acriflavine | increases (or at least differs) with increasing PVA concentration | increased (or at least differs) with increasing PVA concentration | increased (or at least differs) with increasing PVA concentration
